The results in this text go back to patent publication US12084411B2, “Hinokitiol analogues, methods of preparing and pharmaceutical compositions thereof” (The Board of Trustees of the University of Illinois, priority 2018, dated 2024).

The test system of series [1] is fet3Δftr1Δ yeast. The series is described as follows: Growth rescue of iron-deficient yeast with small molecules on agar plates. It is filed as cell-based, Saccharomyces cerevisiae. Conditions: low iron SD-agar plates, 10 μM FeCl3.
Series [2] in a line: Metal efflux from liposomes using PhenGreen. It is filed as biochemical. Here is the method: Hinokitiol-promoted release of different divalent metals from POPC liposomes was performed by tracking the quenching of PhenGreen (Fisher P14312) similar to previously reported (67, 68). […] In all cases, liposomes were prepared using 5 mM of either FeCl2, MnCl2, CoCl2, NiCl2, ZnCl2, or CuCl2 added to the internal buffer. […] The liposome suspension was diluted to 1 mM of phosphorus. The liposome suspension was transferred to a 96-well plate, and either DMSO or 2 μM hinokitiol (from a 40X stock in DMSO) was added at t=2 min. […] After one hour, the liposomes were lysed with Triton-X and the fluorescence was recorded. […] The DMSO-treated and hinokitiol-treated liposomes had similar fluorescence quenching levels after lysis. […] The t1/2 values were calculated using an asymptotic fit in OriginPro. The t1/2 values indicate the time required to reach half of the maximum metal efflux for each metal.

Series [3] deals with DMT1-deficient Caco-2 monolayers. The series is described as follows: 55Fe immunoprecipitation of ferritin in Caco-2 monolayers. Type of series: cell-based, Human. The note with it: apical hinokitiol 500 nM. Here is the method:
Immunoprecipitation of ferritin was performed using human anti-FTL1 (Santa Cruz sc-74513) and Protein G PLUS-Agarose beads (Santa Cruz sc-2002). […] Cell lysate was incubated with primary antibody (1:100 dilution) at room temperature for 1 hour, then with the secondary antibody (1:10 dilution) at room temperature for 1 hour with constant mixing. Repeated centrifugations and PBS rinses were performed, and the radioactive levels in the agarose pellet were determined by dilution in scintillation fluid.

The nature of series [4]: Single-dose in vivo pharmacokinetics of hinokitiol in mice. Conditions: 100 mg/kg. Here is the method: FIGS. 29A-29B show single-dose in vivo pharmacokinetics of hinokitiol in mice. Mice were mixed C57BL/6 and 129/Sv background (2-3 mo. old) were administered various concentrations of hinokitiol (30 or 100 mg Hino/kg body weight) by two different routes (A) intraperitoneal injection and (B) oral gavage. Plasma samples were collected at various timepoints (5-360 minutes) for drug measurement by HPLC.
In addition to evaluating the pharmacodynamics (effect) of hinokitiol in Al, the pharmacokinetics of hinokitiol were characterized to guide the optimal dose scheme for treatment.

Take `CC(C)c1cccc(=O)c(O)c1` [hinokitiol]: the “growth rescue of fet3Δftr1Δ yeast” value in series [1] is listed as “highly effective”. For the same compound, in series [2], the “Cu^II transport rate relative to Fe^II in liposomes” value worked out at 80 fold. In addition, the “55Fe incorporation into ferritin” value in series [3] was “allows for ^55Fe incorporation into ferritin”. Moreover, in series [4], the half-life result is listed as “increased half-life”.
